In US12102672B2, “Immunogenic sequences from a phage tail length tape measure protein, bacteria expressing the same and their use in treating a cancer” (INSTITUT GUSTAVE ROUSSY, priority 2017, dated 2024):
“Also recorded” adds a separate entry of the source. Where no end group is shown, it is not given here.

Key:
[1] = tested on: MCA205 cells with PSMB4 GSFARFRNI knock-in; assay: Growth of Psmb4 knock-in MCA205 tumors under CTX +/- E. hirae 13144; format: in vivo, mice; details: L→F exchange in position 3, versus WT MCA205
splenic CD8+ T cells = assay: IFNγ ELISpot recall assay of splenic CD8+ T cells with DCs pulsed with heat-inactivated bacteria or peptides; format: cell-based, mice; details: for TC1 response against TMP1 in mice gavaged with the strain (IFNγ ELISpot): Example 12, FIG. 27E; for recall responses to TMP1, TMP2 and Group7 after in vivo immunization with the strain: Example 3, FIG. 13E
Protocol: FIG. 9. Experimental immunization protocols to elucidate the immunogenicity of EH peptides. […] 5 days after the first oral gavage, mice are treated with CTX. One week post-CTX, CD8+ T cells are isolated from spleen. These CD8+ T cells are incubated with dendritic cells (DCs) pulsed with 20 μg/ml of peptides (during 1 hour) or with heat-inactivated bacteria (during 6 hours). Inactivation of bacteria consists in incubation at 65° C. during 2 hours. After 24 hours of culture, ELIspot of IFNγ is performed.
FIG. 10. Cross-reactivity between the two E. hirae 708 and 13144 species for CTL splenic reactivity. Number of IFNγ spot representing IFNγ-secreting CD8+ T cells after co-culture with DCs pre-incubated with or without heat-inactivated bacteria (708, 13144, EH17 and L. plantarum).
FIG. 13. Peptides from group 7 containing the TMP1 and TMP2 epitopes activate CD8+ T cells from spleen of mice immunized against E. hirae 13144. Number of IFNγ spot, representing IFNγ-secreting CD8+ T cells, after incubation with DCs pulsed with 13 different group of peptide (Table 6). Just group n° 1 (A) and group n° 7 (B) are shown. (C, E) Number of IFNγ spot, representing IFNγ-secreting CD8+ T cells, after incubation with DCs pulsed with 4 peptides belong to group n° 7 (in table 7). (D) Sequence alignment of TMP1 and TMP2 of EH10815 (SEQ ID Nos: 228 and 229 respectively) compared to EH13144 (fragments of SEQ ID NO: 1) at the level of immunogenic peptides. Amino acid sequence […] corresponds to SEQ ID No: 13. Amino acid sequence […] corresponds to SEQ ID No: 217. Amino acid sequence […] corresponds to SEQ ID Nos: 14. Amino acid sequence AlIEFIKGL corresponds to SEQ ID No: 218. (E) In vitro reactivity of splenic CTL in a recall response to TMP1 and TMP2 as well as Group7 after in vivo immunization with other strains of EH.
(§1) A and C. Experimental setting. […] D-E. Ex vivo recall assays. […] Each dot represents one mouse.

MCA-205 sarcoma [2] = assay: MCA-205 sarcoma growth in FMT-treated mice, CTX plus oral gavage with E. hirae strains; format: in vivo; details: for Anti-tumor effect: summary of the characteristics of the strains, with CTX, MCA205 sarcoma; for boost of CTX tumoricidal activity (MCA-205 tumor growth): dysbiotic FMT from BC patient, 3 cycles CTX 100 mg/kg, oral gavage 1.10^9 bacteria; for antitumor effect together with CTX (summary statements): MCA205 tumor model together with CTX
Protocol: FIG. 1. Experimental setting. (A) Mice are treated with broad spectrum antibiotics (streptomycin, colistin, ampicillin and vancomycine) for 3 days before performing Fecal Microbiota Transplantation (FMT). 14 days post-FMT, MCA-205 sarcoma cell lines are inoculated in the right flank of mice (8.10^5 cells per mice). […] (B) Non FMT-treated SPF mice are used as control.
FIG. 2. Dysbiosis by FMT BC patient 1: Effectiveness of E. hirae 13144 to restore CTX-mediated antitumor effects. […] (C) Tumor growth curves of MCA-205 sarcoma in FMT-treated mice after oral gavage with strain E. hirae 13144 or NaCl as control. 2 independent experiments are depicted. (D) Overall survival of FMT-treated, MCA-205 sarcoma bearing mice treated with CTX or NaCl after oral gavage with strain E. hirae 13144. A typical survival curve is depicted for six mice per group. (E) Concatenated data of tumor sizes at day 21 post-CTX from 2 independent experiments are shown.
FIG. 3. […] (C) Tumor growth curves of MCA-205 sarcoma in FMT-treated mice after oral gavage with strain E. hirae 13144 or NaCl as control. 2 independent experiments are depicted. (D) Concatenated data of tumor sizes at day 21 post-CTX from 2 independent experiments are shown.
FIG. 4. […] Tumor growth curves of MCA-205 sarcoma in FMT-treated mice after oral gavage with strain E. hirae 13144 (A), IGR1 (B) or NaCl as control. A typical curve is depicted for six mice per group. (C) Concatenated data of tumor sizes at day 17 post-CTX from 1-2 independent experiments are shown. (D). Comparaison of various strains of E. hirae for their capacity to control tumor growth. […] EH10815 fails to work and that may be related to a mutation residing in TMP2 (see below FIG. 13B).
FIG. 5. […] (A) Tumor surface of MCA-205 sarcoma in FMT-treated mice after oral gavage with strain E. hirae 13144, IGR4, IGR7, Actinomycetes spp (Ao) and injected with 3 cycles of CTX (C) vs NaCl (N). Each dot is one mouse/tumor. (B) Tumor growth curves of MCA-205 sarcoma in SPF mice of the best group, means+SEM of tumor sizes at each time point and tumor sizes at sacrifice (C: CTX). Each dot is one mouse/tumor. Anova statistics indicating significant differences between CTX and the triple combination. (C) Tumor surface of MCA-205 sarcoma in FMT-treated mice after oral gavage with strains EH13144, IGR1, IGR11, Barnesiella or Akkermansia and injected with 3 cycles of CTX. Bacterial strains are used alive (V) or pasteurized (P). For pasteurization, bacteria are incubated 30 min at 70° C. and frozen at −80° C. at least 6 hours.
FIG. 6. […] Tumor growth curves of MCA-205 sarcoma in FMT-treated mice after oral gavage with strain E. hirae 13144 alive (A), pasteurized (B) or NaCl as control. A typical curve is depicted for six mice per group. (C) Concatenated data of tumor sizes at day 17 post-CTX from 3 independent experiments are shown.

MCA-205 sarcoma [3] = assay: MCA205 sarcoma growth in antibiotic-treated SPF C57BL/6 mice, CTX plus oral gavage with bacteria; format: in vivo; details: ATB 3 days, CTX 100 mg/kg x3, weekly oral gavages, FIG. 27B
Protocol: as §1
A-B. Prophylactic vaccinations. […] C-D. Therapeutic settings.
Mice were treated during 3 days with an antibiotic solution (ATB) containing ampicillin (1 mg/ml), streptomycin (5 mg/ml), colistin (1 mg/ml) (Sigma-Aldrich) and vancomycin (0.25 mg/ml) added in the sterile drinking water of mice. Antibiotic activity was confirmed by cultivating fecal pellets resuspended in BHI+15% glycerol at 0.1 g/ml on COS (BD Columbia Agar with 5% Sheep Blood) plates for 48 h at 37° C. in aerobic and anaerobic conditions. In the context of bacterial transplantation experiments, mice received 3 days of ATB before undergoing bacterial transplantation the next day by oral gavage using animal feeding needles.
Syngeneic C57BL/6 mice were implanted with 0.8×10^6 MCA-205 WT sarcoma cells subcutaneously and treated intraperitoneally (i.p.) when tumors reached 20 to 35 mm^2 in size with CTX (100 mg/kg). Depending on the experimental setting, mice were injected once or 3 times at 1-week interval. Tumor size was routinely monitored every 3 days by means of a caliper.
Enterococcus hirae 13144 were originally isolated from spleens of SPF mice treated with CTX in our laboratory.

pTh17 cells = assay: Induction of pTh17 cells in secondary lymphoid organs of CTX-treated animals; format: in vivo
Description: The reasons for these differences were however unknown, and the inventors pursued their research to identify the factor(s) responsible for the immunogenic properties of the murine strain EH13144 and the human clones IGR4, IGR7 and IGR11, in order to derive new molecules or microorganisms useful in the treatment of cancer.

[4] = tested on: IFNg producing CD8^+ T (Tc1) cells; details: naïve mice; cited from earlier work
BM-DC = assay: IL-1B and IL-12 production by BM-DC; format: cell-based; details: data not shown
[5] = tested on: TMP1-specific CD8+ T cells; details: FIG. 27H
[6] = tested on: CD8+ T cells from HLA-A02*01 healthy volunteers; assay: IFNγ ELISpot of CD8+ T cells from HLA-A2 healthy volunteers stimulated with TMP epitopes; format: cell-based, human; details: Example 7, FIG. 24B
[7] = target: fluorescent H-2K^b/[…] (SEQ ID No: 13) tetrameric complex (mouse; Enterococcus hirae 13144 (39.2 kb prophage, TMP)) (UniProt P01901); assay: flow cytometry with the fluorescent H-2K^b/… tetramer

O=P1(N(CCCl)CCCl)NCCCO1 (centres unmarked) [CTX, cyclophosphamide, reference compound]
anticancer effect on PSMB4 knock-in (GSFARFRNI) MCA205 tumors [1]: not interfering

AMIEFIQGL
recognition of peptides by memory EH13144-induced Tc1 cells (IFNγ ELISpot) (splenic CD8+ T cells; Example 3, FIG. 13/32, DCs pulsed with 20 μg/ml peptides): highly recognized

Enterococcus hirae 13344 [EH17 (13344), reference compound]
Anti-tumor effect (MCA-205 sarcoma [2]): No
restoration of antibiotic-perturbed anticancer effects of CTX (MCA205 growth) (MCA-205 sarcoma [3]): reduced anticancer effect
capacity to induce pTh17 cells in secondary lymphoid organs (pTh17 cells): did not
immunogenic and oncomicrobiotic properties of the isolate [4]: no immunogenic nor oncomicrobiotic properties
memory Tc1 immune response (IFNγ spots) to BM-DC infected with EH isolates (splenic CD8+ T cells; Example 2, FIG. 10, splenic CD8+ T cells after gavage + CTX, ELISPOT at 24 hrs): failed to do so
TC1 response against TMP1 in mice gavaged with the strain (IFNγ ELISpot) (splenic CD8+ T cells): unable to do so

Enterococcus hirae ATCC9790 [10815 (ATCC9790), reference compound]
boost of CTX tumoricidal activity (MCA-205 tumor growth) (MCA-205 sarcoma [2]): failed to efficiently boost CTX tumoricidal activity
boost of CTX tumoricidal activity (MCA-205 tumor growth) (MCA-205 sarcoma [2]; listed as EH10815): did not mediate antitumor effects; also recorded: fails to work
Anti-tumor effect (MCA-205 sarcoma [2]): No
restoration of antibiotic-perturbed anticancer effects of CTX (MCA205 growth) (MCA-205 sarcoma [3]): reduced anticancer effect
recall responses to TMP1, TMP2 and Group7 after in vivo immunization with the strain (splenic CD8+ T cells): does not induce recall responses
TC1 response against TMP1 in mice gavaged with the strain (IFNγ ELISpot) (splenic CD8+ T cells): unable to do so

Enterococcus hirae IGR1 [IGR 1]
boost of CTX tumoricidal activity (MCA-205 tumor growth) (MCA-205 sarcoma [2]): not immunogenic; also recorded: failed to efficiently boost CTX tumoricidal activity
Anti-tumor effect (MCA-205 sarcoma [2]): No
IL-1B and IL-12 production by BM-DC (BM-DC): as effective as EH13144

Enterococcus hirae IGR10 [IGR 10]
boost of CTX tumoricidal activity (MCA-205 tumor growth) (MCA-205 sarcoma [2]): failed to efficiently boost CTX tumoricidal activity
Anti-tumor effect (MCA-205 sarcoma [2]): No

Enterococcus hirae strain IGR4 [IGR 4]
antitumor effect together with CTX (summary statements) (MCA-205 sarcoma [2]): effective at synergizing with CTX
boost of CTX tumoricidal activity (MCA-205 tumor growth) (MCA-205 sarcoma [2]): also immunogenic
boost of CTX tumoricidal activity (MCA-205 tumor growth) (MCA-205 sarcoma [2]; listed as EH IGR 4): efficacy comparable to EH 13144
Anti-tumor effect (MCA-205 sarcoma [2]): Yes

Enterococcus hirae strain IGR7 [IGR 7]
antitumor effect together with CTX (summary statements) (MCA-205 sarcoma [2]): proved immunogenic
antitumor effect together with CTX (summary statements) (MCA-205 sarcoma [2]; listed as clone IGR7): effective at synergizing with CTX
boost of CTX tumoricidal activity (MCA-205 tumor growth) (MCA-205 sarcoma [2]): also immunogenic
boost of CTX tumoricidal activity (MCA-205 tumor growth) (MCA-205 sarcoma [2]; listed as EH IGR 7): efficacy comparable to EH 13144
Anti-tumor effect (MCA-205 sarcoma [2]): Yes
proportion of splenic TMP1-specific CTLs after immunization with the strain (tetramer) [5]: high proportion
restoration of antibiotic-perturbed anticancer effects of CTX (MCA205 growth) (MCA-205 sarcoma [3]): efficient
restoration of antibiotic-perturbed anticancer effects of CTX (MCA205 growth) (MCA-205 sarcoma [3]; listed as E. hirae IGR7): as efficient as E. hirae 13144
capacity to induce pTh17 cells in secondary lymphoid organs (pTh17 cells): significant capacity to induce pTh17 cells
recall responses to TMP1, TMP2 and Group7 after in vivo immunization with the strain (splenic CD8+ T cells): induce recall responses

Enterococcus hirae strain IGR11 [IGR 11]
antitumor effect together with CTX (summary statements) (MCA-205 sarcoma [2]): efficient to mediate some tumoricidal activity
antitumor effect together with CTX (summary statements) (MCA-205 sarcoma [2]; listed as clone IGR11): to some extent
boost of CTX tumoricidal activity (MCA-205 tumor growth) (MCA-205 sarcoma [2]): not immunogenic
Anti-tumor effect (MCA-205 sarcoma [2]): Yes
proportion of splenic TMP1-specific CTLs after immunization with the strain (tetramer) [5]: high proportion
IL-1B and IL-12 production by BM-DC (BM-DC): as effective as EH13144
restoration of antibiotic-perturbed anticancer effects of CTX (MCA205 growth) (MCA-205 sarcoma [3]): efficient
restoration of antibiotic-perturbed anticancer effects of CTX (MCA205 growth) (MCA-205 sarcoma [3]; listed as E. hirae IGR11): as efficient as E. hirae 13144

ILVAITTTI
immunogenicity in humans of HLA-A0201-restricted epitopes [6]: immunogenicity of which has been experimentally confirmed

KLAKFASVV
immunogenicity in humans of HLA-A0201-restricted epitopes [6]: immunogenicity of which has been experimentally confirmed

KMVEILEEI
immunogenicity in humans of HLA-A0201-restricted epitopes [6]: immunogenicity of which has been experimentally confirmed

LLGIYQSYV
immunogenicity in humans of HLA-A0201-restricted epitopes [6]: immunogenicity of which has been experimentally confirmed

RLLKYDVGV
immunogenicity in humans of HLA-A0201-restricted epitopes [6]: immunogenicity of which has been experimentally confirmed

splenic CD8+ T cells of mice gavaged with E. hirae 13144 and treated with CTX (cells without a defined receptor)
percentage of splenic CD8+ T cells recognising the tetramer [7]: < 1%
